Data taken from patent publication EP0907632B1, “INHIBITION OF MATRIX METALLOPROTEASES BY SUBSTITUTED PHENETHYL COMPOUNDS” (Bayer Corporation, priority 1996, dated 1997).

Assays:
[1] = biological target: T1, MMP-9 (Homo sapiens, UniProt P14780); format: biochemical; conditions: 6 µM P218 substrate, pH 6.5, 25 min at 37°C; calculated from IC50; read-out: MMP-9 Kf
T1 construct: made in house
From the text: (§1) The P218 quenched fluorescence assay (Microfluorometric Profiling Assay) is a modification of that originally described by Knight, et al., FEBS Lett. 296, 263, 1992 for a related substance and a variety of matrix metalloproteinases (MMPs) in cuvettes. The assay was run with each invention compound and the three MMPs, Mmp-3, MMP-9 and MMP-2, analyzed in parallel, adapted as follows for a 96-well microtiter plate and a Hamilton AT® workstation. P218 Fluorogenic Substrate: P218 is a synthetic substrate containing a 4-acetyl-7-methoxycoumarin (MCA) group in the N-terminal position and a 3-[2, 4-dinitrophenyl]-L-2,3-diaminopropionyl (DPA) group internally. This is a modification of a peptide reported by Knight (1992) that was used as a substrate for matrix metalloproteinases. Once the P218 peptide is cleaved (putative clip site at the Ala-Leu bond), the fluorescence of the MCA group can be detected on a fluorometer with excitation at 328 nm and emission at 393 nm. P218 is currently being produced BACHEM exclusively for Bayer. P218 has the structure: H-MCA-Pro-Lys-Pro-Leu-Ala-Leu-DPA-Ala-Arg-NH2 (MW 1332.2)
Recombinant Human Pro-MMP-9: Human pro-gelatinase B (pro-MMP-9) derived from U937 cDNA as described by Wilhelm, et al. J. Biol. Chem. 264, 17213, 1989 was expressed as the full-length form using a baculovirus protein expression system. The pro-enzyme was purified using methods previously described by Hibbs, et al. J. Biol. Chem. 260, 2493, 1984.
Activation of Pro-MMP-9: […] 20 µg/mL in 50 mM Tris at pH 7.4, 10mM CaCl2, 150 mM NaCl, and 0.005% Brij-35 (MMP-9 activation buffer) was activated by incubation with 0.5 mM p-aminophenylmercuric acetate (APMA) for 3.5 h at 37 °C. The enzyme was dialyzed against the same buffer to remove the APMA.
(§2) Hamiltion Microlab AT P!us: The MMP-Profiling Assay is performed robotically on a Hamilton MicroLab AT Plus®. The Hamilton is programmed to: (1) serially dilute up to 11 potential inhibitors automatically from a 2.5 mM stock in 100% DMSO; (2) distribute substrate followed by inhibitor into a 96 well Cytofluor plate; and (3) add a single enzyme to the plate with mixing to start the reaction. Subsequent plates for each additional enzyme are prepared automatically by beginning the program at the substrate addition point, remixing the diluted inhibitors and beginning the reaction by addition of enzyme. In this way, all MMP assays were done using the same inhibitor dilutions.
(§3) Millipore Cytofluor II. Following incubation, the plate was read on a Cytofluor II fluorometric place reader with excitation at 340 nm and emission at 395 nm with the gain set at 80.
(§4) Microfluorometric Reaction Buffer (MRB): Dilution of test compounds, enzymes, and P218 substrate for the microfluorometric assay were made in microfluorometric reaction buffer consisting of 50 mM 2-(N-morpholino)ethanesulfonic acid (MES) at pH 6.5 with 10 mM CaCl2, 150 mM NaCl, 0.005% Brij-35 and 1% DMSO.
(§5) MMP Microfluorometric Profiling Assay. The assay is done with a final substrate concentration of 6 µM P218 and approximately .5 to .8 nM MMP with variable drug concentrations. The Hamilton is programmed to serially dilute up to 11 compounds from a 2.5 mM stock (100% DMSO) to 10x the final compounds concentrations in the assay. Initially, the instrument delivers various amounts of microfluoromentric reaction buffer (MRB) to a 96 tube rack of 1 ml Marsh dilution tubes. The instrument then picks up 20 µl of inhibitor (2.5 mM) from the sample rack and mixes it with a buffer in row A of the Marsh rack, resulting in a 50 µM drug concentration. The inhibitors are then serially diluted to 10, 5, 1, .2, .05 and .01 µM. Position 1 on the sample rack contains only DMSO for the "enzyme-only" wells in the assay, which results in no inhibitor in column 1, rows A through H. The instrument then distributes 107 µl of P218 substrate (8.2 µM in MRB) to a single 96 well cytofluor microtiter plate. […]

[2] = biological target: T2, MMP-2 (Homo sapiens, UniProt P08253); test: biochemical
T2 sequence (P08253 110-660): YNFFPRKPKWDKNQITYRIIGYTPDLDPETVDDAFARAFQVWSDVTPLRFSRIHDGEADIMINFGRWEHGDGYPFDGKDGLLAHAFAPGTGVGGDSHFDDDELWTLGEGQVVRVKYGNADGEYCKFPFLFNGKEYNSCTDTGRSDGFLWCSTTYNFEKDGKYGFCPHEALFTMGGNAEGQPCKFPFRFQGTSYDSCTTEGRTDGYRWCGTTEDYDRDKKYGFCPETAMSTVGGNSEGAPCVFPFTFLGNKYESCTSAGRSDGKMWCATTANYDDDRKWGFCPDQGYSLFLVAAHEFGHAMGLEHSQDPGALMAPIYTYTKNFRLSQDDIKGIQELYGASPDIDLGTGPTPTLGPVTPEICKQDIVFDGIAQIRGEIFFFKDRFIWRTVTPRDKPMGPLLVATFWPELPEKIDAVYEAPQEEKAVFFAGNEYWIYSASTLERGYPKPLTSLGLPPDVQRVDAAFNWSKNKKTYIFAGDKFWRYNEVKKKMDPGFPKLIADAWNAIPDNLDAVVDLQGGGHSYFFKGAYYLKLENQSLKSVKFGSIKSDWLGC

[3] = biological target: T3, MMP-3 (Homo sapiens, UniProt P08254); format: biochemical; conditions: 6 µM P218 substrate, pH 6.5, 25 min at 37°C; calculated from IC50; read-out: MMP-3 Kf
T3 construct: made in house; host or cells: CHO cells
From the text: as §1
Recombinant Human CHO Pro-MMP-3: Human CHO pro-stromelysin-257 (pro-MMP-3) was expressed and purified as described by Housley, et al., J. Biol. Chem. 268, 4481, 1993.
Activation of Pro-MMP-3 Pro-MMP-3 at 1.72 µM (100 µg/mL) in 5 mM Tris at pH 7.5, 5 mM CaCl2, 25 mM NaCl, and 0.005% Brij-35 (MMP-3 activation buffer) was activated by incubation with TPCK (N-tosyl-(L)-phenylalanine chloromethyl ketone) trypsin (1:100 w/w to pro-MMP-3) at 25 °C for 30 min. The reaction was stopped by addition of soybean trypsin inhibitor (SBTI: 5:1 w/w to trypsin concentration). This activation protocol results in the formation of 45 kDa active MMP-3, which still contains the C-terminal portion of the enzyme.
as §2, §3, §4, §5

T3 sequence (P08254 100-477): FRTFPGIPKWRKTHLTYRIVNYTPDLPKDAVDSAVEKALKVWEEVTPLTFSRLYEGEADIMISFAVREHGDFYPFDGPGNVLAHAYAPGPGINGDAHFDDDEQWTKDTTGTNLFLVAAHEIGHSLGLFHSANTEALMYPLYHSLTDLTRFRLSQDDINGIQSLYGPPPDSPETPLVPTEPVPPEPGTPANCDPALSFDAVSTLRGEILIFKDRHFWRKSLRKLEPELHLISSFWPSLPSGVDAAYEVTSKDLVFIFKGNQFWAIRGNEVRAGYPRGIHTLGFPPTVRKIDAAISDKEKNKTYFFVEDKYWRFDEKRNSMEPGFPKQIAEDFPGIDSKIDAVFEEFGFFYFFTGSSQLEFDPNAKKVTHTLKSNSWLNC
T1 sequence (P14780 107-707 limits assumed): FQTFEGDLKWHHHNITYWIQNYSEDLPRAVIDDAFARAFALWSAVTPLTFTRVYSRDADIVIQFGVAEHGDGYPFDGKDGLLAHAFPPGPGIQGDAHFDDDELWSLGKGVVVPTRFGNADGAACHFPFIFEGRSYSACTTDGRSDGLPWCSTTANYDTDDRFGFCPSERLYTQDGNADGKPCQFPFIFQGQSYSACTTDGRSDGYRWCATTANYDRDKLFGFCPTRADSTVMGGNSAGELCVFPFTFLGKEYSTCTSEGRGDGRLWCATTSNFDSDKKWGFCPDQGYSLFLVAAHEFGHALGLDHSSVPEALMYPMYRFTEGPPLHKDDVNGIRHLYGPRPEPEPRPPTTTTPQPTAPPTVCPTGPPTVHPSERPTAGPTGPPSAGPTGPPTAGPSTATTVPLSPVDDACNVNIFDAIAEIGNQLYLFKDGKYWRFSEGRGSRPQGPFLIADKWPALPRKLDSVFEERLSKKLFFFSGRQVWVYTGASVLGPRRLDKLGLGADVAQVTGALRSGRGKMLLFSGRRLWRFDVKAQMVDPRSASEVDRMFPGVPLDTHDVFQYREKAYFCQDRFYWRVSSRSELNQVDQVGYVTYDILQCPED

| Compound | Ki [1] [nM] | Ki [2] [nM] | Ki [3] [nM] |
| --- | --- | --- | --- |
| O=C(CC(CCc1ccccc1C(=O)NCCCc1ccccc1)C(=O)O)c1ccc(-c2ccc(Cl)cc2)cc1 (stereo not drawn) [IV, 4'-chloro-γ-oxo-α-[2-[2-[[(3-phenylpropyl)amino]carbonyl]phenyl]ethyl]-[1,1'-biphenyl]-4-butanoic acid] | 246 | 68.7 | 175 |
| O=C(CC(CCc1cccc(C(=O)NCCc2ccccc2)c1)C(=O)O)c1ccc(-c2ccc(Cl)cc2)cc1 (stereo not drawn) [XII, 4'-chloro-γ-oxo-α-[2-[3-[[(2-phenylethyl)amino]carbonyl]phenyl]ethyl]-[1,1'-biphenyl]-4-butanoic acid] | 2650 | 125 | 450 |
| CCOC(=O)CNC(=O)c1ccc(CCC(CC(=O)c2ccc(-c3ccc(Cl)cc3)cc2)C(=O)O)cc1 (stereo not drawn) [XIX, 4'-chloro-α-[2-[4-[[(2-ethoxy-2-oxoethyl)amino]carbonyl]phenyl]ethyl]-γ-oxo[1,1'-biphenyl]4-butanoic acid] | 423 | 82.3 | 376 |
| O=C(CC(CCc1ccc(C(=O)N2CCCCC2)cc1)C(=O)O)c1ccc(-c2ccc(Cl)cc2)cc1 (stereo not drawn) [Compound XXI, 4'-chloro-γ-oxo-α-[2-[4-(1-piperidinylcarbonyl)phenyl]ethyl]-[1,1'-Biphenyl]-4-butanoic acid] | 806 | 84.1 | 242 |
| CC(C)CCNC(=O)c1cccc(CCC(CC(=O)c2ccc(-c3ccc(Cl)cc3)cc2)C(=O)O)c1 (stereo not drawn) [XIV, 4'-chloro-α-[2-[3-[[(3-methylbutyl)amino]carbonyl]phenyl]ethyl]-γ-oxo-[1,1'-biphenyl]-4-butanoic acid] | 707 | 110 | 308 |
